The target of the test is T1, human chemokine receptor 2 isoform B (Homo sapiens, UniProt P41597).
T1 construct: host or cells: CHOK1-CCR2B-A5 (CHO-K1)
T1 sequence (P41597 1-360 isoform P41597-2): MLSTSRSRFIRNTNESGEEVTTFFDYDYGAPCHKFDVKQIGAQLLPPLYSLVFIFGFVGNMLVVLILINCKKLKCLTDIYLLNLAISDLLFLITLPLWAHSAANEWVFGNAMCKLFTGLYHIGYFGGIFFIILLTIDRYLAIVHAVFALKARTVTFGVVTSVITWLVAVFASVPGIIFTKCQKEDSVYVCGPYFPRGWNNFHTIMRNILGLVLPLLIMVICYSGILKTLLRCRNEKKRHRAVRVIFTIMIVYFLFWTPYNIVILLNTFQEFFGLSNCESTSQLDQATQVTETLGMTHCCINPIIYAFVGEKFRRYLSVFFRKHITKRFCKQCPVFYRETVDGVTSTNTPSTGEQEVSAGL
The experiment in a line: Calcium mobilization assay (FLIPR, CHOK1-CCR2B-A5 cells, 20 nM MCP-1). It is filed as cell-based. Particulars: Ca mobilisation assay, CCR2, antagonist activity vs 20 nM MCP-1. In short, it runs like this:
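FLIPR Fluo-4 calcium readout in CHO-K1 cells stably overexpressing human CCR2B; compounds first monitored 80 s for agonist activity, then after 20-30 min at 30 °C challenged with 20 nM MCP-1. Response is max minus basal fluorescence; antagonist value is concentration giving 50% inhibition of specific calcium increase.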
(In general: Calcium assays in cells follow changes in intracellular calcium, usually with a dye or a luminescent sensor.)
For the molecule `CC1CCC(N(C)CCN2CCN(C(=O)/C=C/c3ccc(Cl)c(Cl)c3)CCC2=O)CC1` (mixture of isomers) [Example 124, cis/trans-1-[(E)-3-(3,4-Dichloro-phenyl)-acryloyl]-4-{3-[methyl-(4-methyl-cyclohexyl)-amino]-ethyl}-[1,4]diazepan-5-one], the IC50 (in general, the midpoint of a concentration-inhibition curve) came out at 667 nM.

Regarding `COCC1CCN(CC(O)CCN2CCN(C(=O)/C=C/c3ccc(Cl)c(Cl)c3)CCC2=O)CC1` (racemic) [Example 360], the IC50 was 179 nM.

As to `O=C1NC(=O)C2(CCN(CCCN3CCN(C(=O)/C=C/c4ccc(F)c(Cl)c4)CCC3=O)CC2)N1` [Example 194], the IC50 was found to be 494 nM.

Regarding `O=C(/C=C/c1ccc(F)c(Cl)c1)N1CCC(=O)N(CCCN2CCC3(CC3)C(O)C2)CC1` (centres unmarked) [Example 192], the IC50 amounted to 15 nM.

Regarding `O=C1CC2(CCN(CCCN3CCN(C(=O)/C=C/c4ccc(F)c(Cl)c4)CCC3=O)CC2)CN1` [Example 198], the IC50 came out at 739 nM.

On to `CN(CCO)CC(O)CN1CCN(C(=O)/C=C/c2ccc(Cl)c(Cl)c2)CCC1=O` (racemic) [Example 320], for which the half-maximal inhibitory concentration (IC50) turned out to be 1490 nM.

Take `CC1CC(O)CN(CCCN2CCN(C(=O)C=Cc3ccc(F)c(Cl)c3)CCC2=O)C1` (mixture of isomers) [Example 224, (rac,cis)-1-[(E)-3-(3-Chloro-4-fluoro-phenyl)-acryloyl]-4-[3-(3-hydroxy-5-methyl-piperidin-1-yl)-propyl]-[1,4]diazepan-5-one]: the half-maximal inhibitory concentration (IC50) is 14 nM.

As for `CC1(O)CCCN(CCCCN2CCN(C(=O)/C=C/c3ccc(Cl)c(Cl)c3)CCC2=O)C1` (racemic) [Example 431], the IC50 was determined as 448 nM.

On to `CC1CCN(CCCN2CCN(C(=O)C=Cc3ccc(Cl)c(F)c3)CCC2=O)CC1O` (single isomer, unassigned) [Example 491, 1-[(E)-3-(4-Chloro-3-fluoro-phenyl)-acryloyl]-4-[3-((+,cis)-3-hydroxy-4-methyl-piperidin-1-yl)-propyl]-[1,4]diazepan-5-one], for which the IC50 came out at 216 nM.

Consider `COC[C@H]1CCN(C[C@H](O)CN2CCN(C(=O)/C=C/c3ccc(F)c(Cl)c3)CCC2=O)C[C@H]1O` (mixture of isomers) [Example 338, 1-[(E)-3-(3-Chloro-4-fluoro-phenyl)-acryloyl]-4-[(S)-2-hydroxy-3-(cis-3-hydroxy-4-methoxymethyl-piperidin-1-yl)-propyl]-[1,4]diazepan-5-one], for which the IC50 is 553 nM.

Regarding `O=C(/C=C/c1ccc(Cl)c(Cl)c1)N1CCC(=O)N(CCN[C@H]2CC[C@H](O)CC2)CC1` [Example 106, trans-1-[(E)-3-(3,4-Dichloro-phenyl)-acryloyl]-4-[2-(4-hydroxy-cyclohexylamino)-ethyl]-[1,4]diazepan-5-one], the IC50 was determined as 523 nM.

For the molecule `C[C@@H]1CN(CC(O)CCN2CCN(C(=O)/C=C/c3ccc(Cl)c(Cl)c3)CCC2=O)CC[C@H]1O` (mixture of isomers) [Example 372, (rac)-1-[(E)-3-(3,4-Dichloro-phenyl)-acryloyl]-4-[3-hydroxy-4-(trans-4-hydroxy-3-methyl-piperidin-1-yl)-butyl]-[1,4]diazepan-5-one], the IC50 came to 1230 nM.

In the case of `O=C(/C=C/c1ccc(F)c(Cl)c1)N1CCC(=O)N(CCCCN2CCC(O)CC2)CC1` [Example 384], the IC50 turned out to be 334 nM.

`COC(=O)C(CCCN1CCCCC1)N1CCN(C(=O)/C=C/c2ccc(Cl)c(Cl)c2)CCC1=O` (racemic) [Example 179, (rac)-2-{4-[(E)-3-(3,4-Dichloro-phenyl)-acryloyl]-7-oxo-[1,4]diazepan-1-yl}-5-piperidin-1-yl-pentanoic acid methyl ester]: the IC50 amounted to 3 nM.

Regarding `O=C(/C=C/c1ccc(Cl)c(Cl)c1)N1CCC(=O)N(CCN2CCCCC2)CC1` [Example 3, 1-[(E)-3-(3,4-Dichloro-phenyl)-acryloyl]-4-(2-piperidin-1-yl-ethyl)-[1,4]diazepan-5-one], the IC50 was determined as 1240 nM.

For `O=C(/C=C/c1ccc(F)c(Cl)c1)N1CCC(=O)N(CCCCN2CCC(O)C2)CC1` (racemic) [Example 393], the IC50 was 878 nM.

In the case of `O=C(/C=C/c1ccc(Cl)c(Cl)c1)N1CCC(=O)N(CCCN2CCC[C@H]2CO)CC1` [Example 47, (S)-1-[(E)-3-(3,4-Dichloro-phenyl)-acryloyl]-4-[3-(2-hydroxymethyl-pyrrolidin-1-yl)-propyl]-[1,4]diazepan-5-one], the half-maximal inhibitory concentration (IC50) worked out at 193 nM.

For the molecule `O=C(/C=C/c1ccc(Cl)c(Cl)c1)N1CCC(=O)N(CCCCN2CCC(O)C2)CC1` (racemic) [Example 433], the IC50 amounted to 244 nM.

In the case of `CC1(CO)CCN(CC(O)CN2CCN(C(=O)C=Cc3ccc(F)c(Cl)c3)CCC2=O)CC1O` [Example 340, 1-[(E)-3-(3-Chloro-4-fluoro-phenyl)-acryloyl]-4-[(S)-2-hydroxy-3-((cis)-3-hydroxy-4-hydroxymethyl-4-methyl-piperidin-1-yl)-propyl]-[1,4]diazepan-5-one], the 50% inhibitory concentration (IC50) stood at 19 nM.

Take `COCC1CCCN(CC(O)CCN2CCN(C(=O)/C=C/c3ccc(Cl)c(Cl)c3)CCC2=O)C1` (racemic) [Example 361]: the IC50 is 226 nM.

As for `C[C@@H]1C[C@H](O)CN(C[C@H](O)CN2CCN(C(=O)/C=C/c3ccc(F)c(Cl)c3)CCC2=O)C1` (mixture of isomers) [Example 344, 1-[(E)-3-(3-Chloro-4-fluoro-phenyl)-acryloyl]-4-[(S)-2-hydroxy-3-(cis-3-hydroxy-5-methyl-piperidin-1-yl)-propyl]-[1,4]diazepan-5-one], the IC50 worked out at 26 nM.

Take `COC1CCCN(CCCN2CCN(C(=O)/C=C/c3ccc(Cl)c(Cl)c3)CCC2=O)C1` (racemic) [Example 80, (+/−)-1-[(E)-3-(3,4-Dichloro-phenyl)-acryloyl]-4-[3-(3-methoxy-piperidin-1-yl)-propyl]-[1,4]diazepan-5-one]: the IC50 turned out to be 263 nM.

Consider `O=C(/C=C/c1ccc(Cl)c(Cl)c1)N1CCC(=O)N(CC(O)CN2CCCCC2CO)CC1` (racemic) [Example 290], for which the IC50 was 199 nM.

For the molecule `COCC1CCN(CCCCN2CCN(C(=O)/C=C/c3ccc(F)c(Cl)c3)CCC2=O)CC1` [Example 404], the concentration for half-maximal inhibition (IC50) amounted to 95 nM.

In the case of `CC1CCN(CCCN2CCN(C(=O)C=Cc3ccc(Cl)c(Cl)c3)CCC2=O)CC1O` (single isomer, unassigned) [Example 260, 1-[(E)-3-(3,4-Dichloro-phenyl)-acryloyl]-4-[3-((−, cis)-3-hydroxy-4-methyl-piperidin-1-yl)-propyl]-[1,4]diazepan-5-one], the IC50 was found to be 9 nM.

For `COC1CCCN(CCCCN2CCN(C(=O)/C=C/c3ccc(F)c(Cl)c3)CCC2=O)C1` (racemic) [Example 395], the half-maximal inhibitory concentration (IC50) is 996 nM.

Regarding “4-(3-{4-[(E)-3-(3,4-Dichloro-phenyl)-acryloyl]-7-oxo-[1,4]diazepan-1-yl}-propylamino)-cyclohexanecarboxylic acid amide [Example 77]”, the IC50 was 326 nM.

Regarding `O=C(/C=C/c1ccc(Cl)c(Cl)c1)N1CCC(=O)N(CCCN2CCC3(CC3)C(O)C2)CC1` (racemic) [Example 251], the IC50 amounted to 8 nM.

For the molecule `O=C(/C=C/c1ccc(Cl)c(Cl)c1)N1CCC(=O)N(CCCN2CC[C@H](CO)[C@@H](O)C2)CC1` (racemic) [Example 268, (rac,trans)-1-[(E)-3-(3,4-Dichloro-phenyl)-acryloyl]-4-[3-(3-hydroxy-4-hydroxymethyl-piperidin-1-yl)-propyl]-[1,4]diazepan-5-one], the concentration for half-maximal inhibition (IC50) was determined as 215 nM.

`CC1(CO)CCN(CCCN2CCN(C(=O)/C=C/c3ccc(Cl)c(Cl)c3)CCC2=O)CC1` [Example 254]: the IC50 came out at 108 nM.

Turning to `O=C(/C=C/c1ccc(Cl)c(Cl)c1)N1CCC(=O)N(CCCN2CCN(C3CC3)CC2)CC1` [Example 241], the IC50 was found to be 765 nM.

In the case of `O=C1NCC2(CCN(CCCN3CCN(C(=O)/C=C/c4ccc(Cl)c(Cl)c4)CCC3=O)CC2)O1` [Example 84, 8-(3-{4-[(E)-3-(3,4-Dichloro-phenyl)-acryloyl]-7-oxo-[1,4]diazepan-1-yl}-propyl)-1-oxa-3,8-diaza-spiro[4.5]decan-2-one], the IC50 is 223 nM.

`O=C(/C=C/c1ccc(Cl)c(Cl)c1)N1CCC(=O)N(CC(O)CN2CCC3(CCCO3)CC2)CC1` (racemic) [Example 326]: the IC50 was determined as 999 nM.

For `CC1CCC(NCCN2CCN(C(=O)/C=C/c3ccc(Cl)c(Cl)c3)CCC2=O)CC1` (mixture of isomers) [Example 138, cis/trans-1-[(E)-3-(3,4-Dichloro-phenyl)-acryloyl]-4-{3-[(4-methyl-cyclohexyl)-amino]-ethyl}-[1,4]diazepan-5-one], the IC50 was 1260 nM.

For the molecule `O=C(/C=C/c1ccc(Cl)c(Cl)c1)N1CCC(=O)N(CCCCN2CCC[C@H](O)[C@@H]2CO)CC1` (racemic) [Example 480], the IC50 came out at 53 nM.

For `CN(CCN1CCN(C(=O)/C=C/c2ccc(Cl)c(Cl)c2)CCC1=O)C1CCOCC1` [Example 134, 1-[(E)-3-(3,4-Dichloro-phenyl)-acryloyl]-4-{3-[methyl-(tetrahydro-pyran-4-yl)-amino]-ethyl}-[1,4]diazepan-5-one], the IC50 turned out to be 600 nM.

On to `CC1CC(O)CN(CCCCN2CCN(C(=O)C=Cc3ccc(Cl)c(Cl)c3)CCC2=O)C1` (mixture of isomers) [Example 482, (rac,cis)-1-[(E)-3-(3,4-Dichloro-phenyl)-acryloyl]-4-[4-(3-hydroxy-5-methyl-piperidin-1-yl)-butyl]-[1,4]diazepan-5-one], for which the IC50 is 13 nM.

In the case of `COC(=O)N(C)C1CCN(CCCCN2CCN(C(=O)/C=C/c3ccc(F)c(Cl)c3)CCC2=O)CC1` [Example 402], the IC50 is 291 nM.
